Test results published in patent publication US12534477B2, “Compound having KHK inhibitory effect” (HANGZHOU ZHONGMEIHUADONG PHARMACEUTICAL CO., LTD., priority 2019, dated 2026).
Like-named read-outs stand apart in the source and are kept apart here.

Assays:
[1] = Pharmacokinetic evaluation in SD rats; format: in vivo; details: rat, plasma; for clearance: 1 mg/kg, read-out: Clearance rate; for clearance / bioavailability: IV 1 mpk; for AUC / bioavailability: PO 3 mpk; for AUC: read-out: Integral concentration AUC for PO; for half-life: IV 1 mpk and PO 3 mpk study, read-out: Half-life T1/2 (converted); for bioavailability: read-out: Bioavailability F
Procedure: In vivo pharmacokinetics of compounds in SD rats were tested.
Pharmacokinetic profiles in rodents following intravenous and oral administration of the compounds were tested by standard protocols. In the experiment, candidate compounds were formulated as clear solutions or homogeneous suspensions, and were administered to rats by single intravenous injection (IV, 1 mpk) and oral administration (PO, 3 mpk). The vehicle for intravenous injection was a certain proportion of PEG400 in water, and the vehicle for oral administration was a certain proportion of methylcellulose and Tween 80 in water. Whole blood was collected, and plasma was prepared. Drug concentration was analyzed by LC-MS/MS, and pharmacokinetic parameters were calculated by Phoenix WinNonlin software.

[2] = Liver-blood ratio, tissue distribution in rats; format: in vivo, SD rats; details: PO 1 mpk
Procedure: Tissue distribution of compounds in SD rats was tested.
In the experiment, candidate compounds were formulated as clear solutions and administered to rats in a single oral dose (PO, 1 mpk). The vehicle for oral administration was a certain proportion of methylcellulose and Tween 80 in water. Whole blood was collected at a certain time and plasma was prepared, and tissues were collected at the corresponding time and prepared into tissue homogenates. Drug concentration was analyzed by LC-MS/MS, and pharmacokinetic parameters were calculated by Phoenix WinNonlin software.

CYP1A2 = CYP1A2 (Homo sapiens (Human), UniProt P05177); format: in vitro ADME; details: microsomes
Procedure: (§1) The inhibitory effect of test compounds on the activity of human hepatic microsomal cytochrome P450 isozymes (CYP1A2, CYP2C9, CYP2C19, CYP2D6 and CYP3A4) was determined.
(§2) First, the test compound (10 mM) was diluted in gradient to prepare working solutions (100×final concentration) with working solution concentrations: 5, 1.5, 0.5, 0.15, 0.05, 0.015, 0.005 mM, respectively, and at the same time, working solutions of each positive inhibitor of P450 isozymes (CYP1A2, CYP2C9, CYP2C19, CYP2D6 and CYP3A4) and its specific substrate mixture were prepared. Human liver microsomes frozen in a −80° C. refrigerator were thawed on ice, and diluted with PB (phosphate buffer) after all the human liver microsomes were dissolved, to prepare a working solution at a certain concentration (0.253 mg/mL). 20 μl substrate mixture was added to the reaction plate (20 μL PB was added to the Blank wells) while 158 μL human liver microsome working solution was added to the reaction plate which was placed on ice for later use. At this time, 2 μL of each concentration of the test compound (N=1) and the specific inhibitor (N=2) were added to the corresponding wells, and the corresponding organic solvents were added to the groups without inhibitors (the test compound or the positive inhibitor) as control samples (1:1 DMSO:MeOH for the test compound control sample, and 1:9 DMSO:MeOH for the positive control sample). After pre-incubation in 37° C. water bath for 10 min, 20 μL coenzyme factor (NADPH) solution was added to the reaction plate, and incubated in 37° C. water bath for 10 min. 400 μL cold acetonitrile solution (200 ng/mL Tolbutamide and Labetalol as the internal standard) was added to stop the reaction. The reaction plate was placed on a shaker and shaken for 10 min. The mixture was centrifuged at 4,000 rpm for 20 min, and 200 μl the supernatant was added to 100 μL water for sample dilution. Finally, the plate was sealed, shaken, mixed well and detected by LC/MS/MS.

[3] = test system: fructose metabolism in mice; test: Acute fructose feeding experiment in mice; format: in vivo; details: compound 30 mpk, oral fructose 1 g/kg
Procedure: The effect of test compounds on the fructose content in mice with high fructose intake was investigated.
All animals were acclimated for one week in an animal house, fed with normal chow and fasted for 16 hours before being given fructose.
1) The experiment began at −0.5 hr. A control group was given a certain volume of vehicle (a certain proportion of methylcellulose and Tween 80 in water), and an experimental group was given a certain dose of a solution of the compound (the administered volume was consistent with the vehicle).
2) 0.5 hour later and before administration of a fructose solution, a blood sample was collected at 0 hr, followed by oral administration of 1 g/kg of an aqueous fructose solution.
3) After the administration of fructose, blood samples were collected from saphenous vein of mice at 0.25, 0.5, 1, 2, 3 and 8 hr, and fructose concentration was analyzed by LC-MS/MS.

CYP2C19 = CYP2C19 (Homo sapiens (Human), UniProt P33261); test: Inhibitory activity on human liver microsomal cytochrome P450 isozymes; format: in vitro ADME; details: human liver microsomes
Procedure: as §1, §2

CYP3A4 = CYP3A4 (Homo sapiens (Human), UniProt P08684); test: as above; format: in vitro ADME; details: human liver microsomes
Procedure: as §1, §2

CYP2C9 = CYP2C9 (Homo sapiens (Human), UniProt P11712); test: as above; format: in vitro ADME; details: human liver microsomes
Procedure: as §1, §2

CYP2D6 = CYP2D6 (Homo sapiens (Human), UniProt P10635); test: as above; format: in vitro ADME; details: human liver microsomes
Procedure: as §1, §2

[4] = molecular target: Recombinant Human Ketohexokinase (KHK) (Homo sapiens (Human), UniProt P50053); test: Ketohexokinase assay (KHK assay), ADP-Glo; format: biochemical
Procedure: • 1. EnVision multilabel reader, Perkin Elmer; • 2. OptiPlate 384-well microplate, Perkin Elmer, Cat. No. 6007290; • 3. Recombinant Human Ketohexokinase (KHK), R&D Cat. No.: 8177-HK-020, Lot No.: DDFK0117092; • 4. Fructose (D(−)-Fructose), SCR Cat. No.: 36003034; and • 5. ADP-Glo kinase assay kit, Promega_Cat. No.: V9101.
1. preparation of Dilution Buffer containing 50 mM hydroxyethylpiperazine […] (Hepes), 140 mM KCl, 3.5 mM MgCl2, and 0.01% bovine serum albumin (BSA), pH 7.4.
2. A working solution of ketohexokinase at 2.5 times concentration was prepared with Dilution Buffer, with 50 nM ketohexokinase and 12.5 mM fructose.
3. A working solution of adenosine triphosphate (ATP) at 2.5 times concentration was prepared with Dilution Buffer, with a concentration of 250 μM.
4. Each compound was diluted starting at a concentration of 500 μM, 3-fold diluted for 9 concentration points. The final concentration of the compound in the reaction system started from 10 μM and the final concentration of dimethyl sulfoxide (DMSO) was 2%.
5. A 96-well plate was prepared as a reaction plate, and was incubated at room temperature for 5 min after adding 6 μL ketohexokinase working solution at 2.5 times concentration to each well and further adding 3 μL compound working solution to each well.
6. The first well of each row was a positive control for a compound, i.e. the same volume of the buffer was added to replace the compound and ketohexokinase. The last well was a negative control for the compound, i.e. the same volume of Dilution Buffer was added instead of the compound.
7. 6 μL ATP working solution was added to each well in a 96-well reaction plate to initiate the kinase reaction. The kinase reaction was incubated in a constant temperature heater at 28° C. for 1 h.
1. A384 plate was prepared as a detection plate, and firstly 5 μL ADP-Glo reagent was added.
2. 5 μL kinase reaction mixture from the reaction plate was added to each well and incubated in a constant temperature heater at 28° C. for 30 min.
3. 10 μL kinase detection reagent was added to each well and incubated in a constant temperature heater at 28° C. for 30 min.
4. The detection plate was placed in an EnVision multilabel reader to read the chemiluminescent signal.

[5] = SD, rat, liver, 1 mg/kg, 1.5 h, read-out: Liver tissue concentration
[6] = SD, rat, liver, 1 mg/kg, 2.0 h, read-out: Liver tissue concentration
[7] = SD, rat, liver, 1 mg/kg, 6.0 h, read-out: Liver tissue concentration
[8] = SD, rat, liver/plasma, 1 mg/kg, 1.5 h, read-out: Liver-blood ratio
[9] = SD, rat, liver/plasma, 1 mg/kg, 2.0 h, read-out: Liver-blood ratio
[10] = SD, rat, liver/plasma, 1 mg/kg, 6.0 h, read-out: Liver-blood ratio
[11] = SD, rat, plasma, 1 mg/kg, 1.5 h, read-out: Plasma concentration
[12] = SD, rat, plasma, 1 mg/kg, 2.0 h, read-out: Plasma concentration
[13] = SD, rat, plasma, 1 mg/kg, 6.0 h, read-out: Plasma concentration

Sequence of CYP3A4 (P08684 whole entry): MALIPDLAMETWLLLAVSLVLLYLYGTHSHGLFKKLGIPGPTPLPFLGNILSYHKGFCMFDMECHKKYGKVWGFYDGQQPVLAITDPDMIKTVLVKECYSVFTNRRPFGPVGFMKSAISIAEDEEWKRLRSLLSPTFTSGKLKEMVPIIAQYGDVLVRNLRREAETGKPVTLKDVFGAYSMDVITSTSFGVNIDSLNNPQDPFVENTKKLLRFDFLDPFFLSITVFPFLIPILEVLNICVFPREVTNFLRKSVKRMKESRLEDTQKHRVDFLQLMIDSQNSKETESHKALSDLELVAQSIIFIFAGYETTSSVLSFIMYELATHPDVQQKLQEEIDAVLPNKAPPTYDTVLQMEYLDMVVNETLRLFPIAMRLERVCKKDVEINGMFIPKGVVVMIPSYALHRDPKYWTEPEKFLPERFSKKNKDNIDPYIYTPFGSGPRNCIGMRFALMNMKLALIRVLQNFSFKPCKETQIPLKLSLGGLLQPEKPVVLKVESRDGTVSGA
Sequence of CYP2C19 (P33261 whole entry): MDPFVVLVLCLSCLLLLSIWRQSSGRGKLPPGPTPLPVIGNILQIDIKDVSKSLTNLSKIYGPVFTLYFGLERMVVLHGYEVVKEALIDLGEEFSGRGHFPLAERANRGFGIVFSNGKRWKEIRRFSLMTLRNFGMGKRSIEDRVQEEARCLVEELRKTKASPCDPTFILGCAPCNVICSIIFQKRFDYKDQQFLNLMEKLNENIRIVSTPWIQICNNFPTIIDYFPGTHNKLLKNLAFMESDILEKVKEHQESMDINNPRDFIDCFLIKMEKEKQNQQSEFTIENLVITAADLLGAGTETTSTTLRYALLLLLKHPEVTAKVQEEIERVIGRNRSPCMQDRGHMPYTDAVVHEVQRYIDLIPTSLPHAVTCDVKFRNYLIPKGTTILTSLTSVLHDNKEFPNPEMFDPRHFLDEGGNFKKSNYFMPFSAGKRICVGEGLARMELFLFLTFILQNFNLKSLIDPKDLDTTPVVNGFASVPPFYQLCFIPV
Sequence of CYP2D6 (P10635 whole entry): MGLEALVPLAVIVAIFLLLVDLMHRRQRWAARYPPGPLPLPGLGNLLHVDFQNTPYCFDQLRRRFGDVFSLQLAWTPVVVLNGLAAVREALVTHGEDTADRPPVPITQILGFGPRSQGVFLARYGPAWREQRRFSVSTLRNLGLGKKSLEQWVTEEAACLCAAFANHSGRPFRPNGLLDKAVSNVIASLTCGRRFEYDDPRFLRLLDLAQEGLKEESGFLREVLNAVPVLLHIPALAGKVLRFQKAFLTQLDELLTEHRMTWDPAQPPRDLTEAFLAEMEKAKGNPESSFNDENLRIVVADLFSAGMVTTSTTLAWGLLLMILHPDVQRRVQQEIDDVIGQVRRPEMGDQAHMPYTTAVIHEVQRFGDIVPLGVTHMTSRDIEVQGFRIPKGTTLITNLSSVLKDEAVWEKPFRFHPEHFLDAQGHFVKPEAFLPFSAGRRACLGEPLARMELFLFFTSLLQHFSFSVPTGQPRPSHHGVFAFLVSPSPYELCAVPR
Sequence of Recombinant Human Ketohexokinase (KHK) (P50053 whole entry): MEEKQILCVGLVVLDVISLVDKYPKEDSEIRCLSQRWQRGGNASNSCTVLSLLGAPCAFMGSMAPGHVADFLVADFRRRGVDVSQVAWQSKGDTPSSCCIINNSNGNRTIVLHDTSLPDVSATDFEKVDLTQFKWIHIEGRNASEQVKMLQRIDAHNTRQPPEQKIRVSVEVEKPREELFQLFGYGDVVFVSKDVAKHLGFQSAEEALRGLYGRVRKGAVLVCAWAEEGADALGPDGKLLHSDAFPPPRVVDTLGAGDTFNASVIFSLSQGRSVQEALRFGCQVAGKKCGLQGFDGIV
Sequence of CYP1A2 (P05177 whole entry): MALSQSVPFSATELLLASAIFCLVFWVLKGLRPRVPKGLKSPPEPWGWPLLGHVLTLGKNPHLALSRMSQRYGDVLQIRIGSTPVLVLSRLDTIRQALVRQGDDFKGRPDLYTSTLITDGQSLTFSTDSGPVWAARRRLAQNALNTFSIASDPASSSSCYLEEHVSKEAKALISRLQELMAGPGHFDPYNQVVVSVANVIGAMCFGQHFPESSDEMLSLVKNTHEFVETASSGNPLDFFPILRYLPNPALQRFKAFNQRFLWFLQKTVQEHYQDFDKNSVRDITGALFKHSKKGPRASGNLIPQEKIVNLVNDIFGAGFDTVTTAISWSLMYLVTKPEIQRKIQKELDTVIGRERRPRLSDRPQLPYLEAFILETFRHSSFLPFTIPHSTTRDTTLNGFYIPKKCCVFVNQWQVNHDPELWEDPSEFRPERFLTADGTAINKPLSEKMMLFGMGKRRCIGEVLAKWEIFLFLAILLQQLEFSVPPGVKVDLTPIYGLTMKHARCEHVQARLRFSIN
Sequence of CYP2C9 (P11712 whole entry): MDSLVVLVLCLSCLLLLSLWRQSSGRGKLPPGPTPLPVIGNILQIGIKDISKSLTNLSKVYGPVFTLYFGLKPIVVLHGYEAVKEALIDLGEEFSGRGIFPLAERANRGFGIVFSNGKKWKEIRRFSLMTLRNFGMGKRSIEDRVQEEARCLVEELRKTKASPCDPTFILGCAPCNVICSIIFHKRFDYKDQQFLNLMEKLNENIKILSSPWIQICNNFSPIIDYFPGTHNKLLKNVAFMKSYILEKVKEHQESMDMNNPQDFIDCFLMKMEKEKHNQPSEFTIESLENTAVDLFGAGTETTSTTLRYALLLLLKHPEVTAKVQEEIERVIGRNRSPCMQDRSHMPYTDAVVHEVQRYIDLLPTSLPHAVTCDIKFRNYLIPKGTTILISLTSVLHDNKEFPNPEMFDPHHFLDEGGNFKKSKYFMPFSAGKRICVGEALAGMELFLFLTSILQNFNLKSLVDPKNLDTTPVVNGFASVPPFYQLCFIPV

## C[C@H]1CCN1c1nc(N2CC3(C[C@@H]3C(=O)O)C2)c2c(n1)C(F)(F)CC2 [WX042]
[1]
  clearance: 8.13 mL/min/kg
  half-life: 2.27 h
  bioavailability: 176%
[1]; 3 mg/kg
  AUC: 20.5 µM·h
[2]; 1.5 h
  Brain-blood ratio: 0.0375
  Liver-blood ratio: 9.53
  Plasma concentration: 3314 nM
[2]; 1.5 h, read-out: Brain tissue concentration
  concentration at 6 h: 76.2 nM
[2]; 1.5 h, read-out: Liver tissue concentration
  concentration at 1.5 h: 19900 nM
[2]; 2.0 h
  Brain-blood ratio: 0.0211
  Liver-blood ratio: 6.78
  Plasma concentration: 3045 nM
[2]; 2.0 h, read-out: Brain tissue concentration
  concentration at 6 h: 62.2 nM
[2]; 2.0 h, read-out: Liver tissue concentration
  concentration at 1.5 h: 20600 nM
[2]; 6.0 h
  Liver-blood ratio: 26.2
  Plasma concentration: 259 nM
[2]; 6.0 h, read-out: Liver tissue concentration
  concentration at 1.5 h: 6710 nM
CYP1A2
  IC50: > 50 µM
[3]
  AUC of integral fructose concentration for dosed group: 3400 nM·h
  AUC of integral fructose concentration of dosed group/AUC of Integral fructose concentration of control group: 12.9
CYP2C19
  IC50: > 50 µM
CYP3A4
  IC50: > 50 µM
CYP2C9
  IC50: > 50 µM
CYP2D6
  IC50: > 50 µM

## C[C@H]1CCN1c1nc(N2C[C@@H]3[C@@H](CC(=O)O)[C@@H]3C2)c2ncsc2n1 [WX001]
[1]
  clearance: 1.04 mL/min/kg
  half-life: 3.12 h
[1]; 3 mg/kg
  bioavailability: 158%
  AUC: 163 µM·h
[2]; SD, rat, brain, 1 mg/kg, 1.5 h, read-out: Brain tissue concentration
  concentration at 1.5 h: 72.8 nM
[2]; SD, rat, brain, 1 mg/kg, 2.0 h, read-out: Brain tissue concentration
  concentration at 2 h: 162 nM
[2]; SD, rat, brain, 1 mg/kg, 6.0 h, read-out: Brain tissue concentration
  concentration at 6 h: 91.5 nM
[2]; SD, rat, brain/plasma, 1 mg/kg, 1.5 h, read-out: Brain-blood ratio
  Kp at 1.5 h: 0.015
[2]; SD, rat, brain/plasma, 1 mg/kg, 2.0 h, read-out: Brain-blood ratio
  Kp at 2 h: 0.017
[2]; SD, rat, brain/plasma, 1 mg/kg, 6.0 h, read-out: Brain-blood ratio
  Kp at 6 h: 0.02
[2]; [5]
  concentration at 1.5 h: 2440 nM
[2]; [6]
  concentration at 2 h: 4270 nM
[2]; [7]
  concentration at 6 h: 1790 nM
[2]; [8]
  Kp at 1.5 h: 0.491
[2]; [9]
  Kp at 2 h: 0.469
[2]; [10]
  Kp at 6 h: 0.549
[2]; [11]
  concentration at 1.5 h: 4880 nM
[2]; [12]
  concentration at 2 h: 9090 nM
[2]; [13]
  concentration at 6 h: 3320 nM
CYP1A2; human, 10 min
  IC50: > 50 µM
CYP2C19
  IC50: > 50 µM
CYP3A4
  IC50: > 50 µM
CYP2C9
  IC50: > 50 µM
CYP2D6
  IC50: > 50 µM
[4]
  IC50: 0.18 µM

## C[C@H]1CCN1c1nc(Nc2ccc(CC(=O)O)cc2)c2ccsc2n1 [WX006]
[1]
  clearance: 1.05 mL/min/kg
  half-life: 2.63 h
[1]; 3 mg/kg
  bioavailability: 44%
  AUC: 39.5 µM·h
[2]; [5]
  concentration at 1.5 h: 2420 nM
[2]; [6]
  concentration at 2 h: 2860 nM
[2]; [7]
  concentration at 6 h: 2180 nM
[2]; [8]
  Kp at 1.5 h: 1.2
[2]; [9]
  Kp at 2 h: 0.92
[2]; [10]
  Kp at 6 h: 1.25
[2]; [11]
  concentration at 1.5 h: 2010 nM
[2]; [12]
  concentration at 2 h: 3100 nM
[2]; [13]
  concentration at 6 h: 1780 nM
CYP1A2; human, 10 min
  IC50: > 50 µM
CYP2C19
  IC50: > 50 µM
CYP3A4
  IC50: > 50 µM
CYP2C9
  IC50: > 50 µM
CYP2D6
  IC50: > 50 µM
[4]
  IC50: 0.025 µM

## C[C@H]1CCN1c1nc2c(c(N3C[C@@H]4[C@@H](CC(=O)O)[C@@H]4C3)n1)CCS2 [WX026]
[3]
  AUC of integral fructose concentration for dosed group: 993 nM·h
  AUC of integral fructose concentration of dosed group/AUC of Integral fructose concentration of control group: 8.9
[4]
  IC50: 0.091 µM

## C[C@H]1CCN1c1nc(N2CC3(C[C@@H]3C(=O)O)C2)c2ccsc2n1 [WX020]
[3]
  AUC of integral fructose concentration for dosed group: 1180 nM·h
  AUC of integral fructose concentration of dosed group/AUC of Integral fructose concentration of control group: 8.5
[4]
  IC50: 0.13 µM
